# Laboratory results from patent US20020193425A1, “Cancer chemopreventative compounds and compositions and methods of treating cancers” (priority 2001, published 2002).
# Read-outs that look alike come from different tables or passages of the source.
# Experiments:
# [1] = HL-60 cytotoxicity of quassinoids, trypan blue exclusion; type: cell-based, human; conditions: human
# Description: Induction of differentiation was determined by the ability of treated cells to produce superoxide anions (nitroblue tetrazolium (NBT)-reduction), a functional marker of mature macrophages or granulocytes. Proliferation capacity is equivalent to cell growth and was measured by incorporation of [3H]thymidine into DNA over a period of 18 h, and cytotoxic activity was evaluated by the loss of membrane integrity as shown by trypan blue exclusion. […] Although members of the brusatol and glaucarubolone series were active, when comparing members of both series that varied only in the positioning of the epoxymethano bridge, great differences were noted, as shown with yadianzolide C (5) and glaucarubolone (24), and analogues 4 (brusatol series) and 32 (glaucarubolone series).
# HL-60 (human promyelocytic) cells were tested using a 4-day incubation protocol. In brief, cells in log phase (approximately 10^6 cells/mL) were diluted to […] and preincubated overnight (18 h) in 24-well plates to allow cell-growth recovery. Then, samples dissolved in DMSO were added, keeping the final DMSO concentration at 0.1% (v/v). Control cultures were treated with the same concentration of DMSO. After 4 days of incubation, the cells were analyzed to determine the percentage of cells undergoing maturation as determined by NBT reduction. Concomitantly, the effect on viability and proliferation of HL-60 cells was determined. In each experiment, 1α, 25-dihydroxyvitamin D3 (EC50=0.01 μM) and brusatol (EC50=0.07 μM) were used as reference controls. EC50 and IC50 values were calculated using 5-7 test concentrations (in duplicate), and consistent results were obtained, indicating the data reported for the related quassinoids are reliable.
# (2) Cytotoxicity. Since loss of membrane integrity is an early feature of necrotic cells and a late feature of apoptotic cells, trypan blue, a […] blue dye, was used to stain cells with compromised plasma membranes, while leaving intact cells unstained. Cells […] of trypan blue (0.2% w/v in PBS), incubated for at least 5 min at room temperature, and counted using a hematocytometer. Viability percentages were calculated with duplicate samples.
# c-myc mRNA, Kasumi-1 = assay: c-myc mRNA levels, real time RT-PCR; type: cell-based
# Description: (§1) RNA was extracted from 10^6 cells using TRIZOL® Reagent (Life Technologies). Following isopropanol precipitation, the pellet was washed in 75% aqueous ethanol and the RNA was dissolved in […] of diethyl pyrocarbonate (DEPC)-treated distilled water. Subsequently, the samples were stored at −80° C. RNA quantitation was performed by UV measurement at 260 nm. The cDNA synthesis was performed in a total volume of […], containing 1×TaqManÒ RT buffer, 5.5 mM MgCl2, 2 mM dNTPs mixture, 2.5 mM random hexamers, 4 U RNase inhibitor, 12.5 U MultiScriber RT (Perkin Elmer/Applied Biosystems) and […] of RNA. The reaction was performed for 10 min at 25° C., followed by 48° C. for 30 min and a 5 min incubation step at 95° C. After the reaction, […] of DEPC-treated distilled water was added to each sample and […] was used for each PCR.
# (§2) The PCR and subsequent analyses were performed in the GeneAmp 5700 Sequence Detection System (Applied Biosystems). Real-time quantitation was performed using the TaqMan technology of Applied Biosystems (Foster City, Calif., USA). c-Myc primers and probe sequences (5′ to 3′) were as follows: […], […] and […] (Applied Biosystems).
# (§3) PCR reactions were performed in triplicate. The PCR reaction mixture contained 300 nM of both primers, 150 nM TaqMan probe, and 1×TaqMan Universal Master Mix (Applied Biosystems). The reactions first were incubated at 50° C. for 2 min, followed by 10 min at 95° C. The PCR itself consisted of 40 cycles with 15 s at 95° C. and 1 min at 60° C. each. The fluorescence signal was measured during the last 30 s of the annealing/extension phase. After the PCR, a fluorescence threshold value was set and threshold cycle (Ct) values were determined, i.e., the fractional cycle at which the fluorescence signal reached this threshold. These values were used for further calculations.
# (§4) β-Actin (TaqMan PDAR control, Applied Biosystems) was used as an endogenous reference to correct for any differences in the amount of total RNA used for a reaction and to compensate for different levels of inhibition during reverse transcription of RNA into cDNA. c-Myc and β-actin expression were related to a standard curve derived from a serial dilution of K562 cDNA with dH2O. Also, c-Myc and β-actin quantities were expressed in terms of ng of K562 RNA yielding the same level of expression. Subsequently, normalization was achieved by dividing the expression level of c-Myc by the β-actin expression level. Finally, results were expressed as a percentage, where the level of c-Myc observed in the DMSO-treated samples was considered as 100%.
# (§5) Cells were treated with brusatol (25 ng/ml) or bruceantin (10 ng/ml) for 4 or 24 h and then analyzed for c-myc and β-actin mRNA using real time RT-PCR. Results are shown as percentage of c-myc mRNA expression of control (0.1%, v/v, DMSO) values. Results are the mean of triplicate samples (±standard deviation). c-Myc mRNA values were normalized relative to β-actin.
# c-myc mRNA, K562 = assay: c-myc mRNA levels, real time RT-PCR; type: cell-based
# Description: as §1, §2, §3, §4, §5
# c-myc mRNA, RS4;11 = assay: c-myc mRNA levels, real time RT-PCR; type: cell-based
# Description: as §1, §2, §3, §4, §5
# c-myc mRNA, U937 = assay: c-myc mRNA levels, real time RT-PCR; type: cell-based
# Description: as §1, §2, §3, §4, §5
# c-myc mRNA, SUPB13 = assay: c-myc mRNA levels, real time RT-PCR; type: cell-based
# Description: as §1, §2, §3, §4, §5
# c-myc mRNA, NB4 = assay: c-myc mRNA levels, real time RT-PCR; type: cell-based
# Description: as §1, §2, §3, §4, §5
# c-myc mRNA, BV173 = assay: c-myc mRNA levels, real time RT-PCR; type: cell-based
# Description: as §1, §2, §3, §4, §5
# c-myc mRNA, Daudi = assay: c-myc mRNA levels, real time RT-PCR; type: cell-based
# Description: as §1, §2, §3, §4, §5
# c-myc mRNA, Reh = assay: c-myc mRNA levels, real time RT-PCR; type: cell-based
# Description: as §1, §2, §3, §4, §5
smiles,measurement,setting,value
"COC(=O)[C@@]12OC[C@]34[C@H]([C@@H](O)[C@@H]1O)[C@@]1(C)CC(=O)C(O)=C(C)[C@@H]1C[C@H]3OC(=O)[C@H](OC(=O)C=C(C)C)[C@@H]24 [compound 1, brusatol]",IC50 at 4 days,"[1]; HL-60 cells, HL-60, 4-day incubation, trypan blue exclusion, read-out: cytotoxicity (IC50)",170 ± 1 nM
same,"c-myc mRNA expression, percentage of control","c-myc mRNA, Kasumi-1; Brusatol (25 ng/ml), 4 h",27 ± 5 %
same,"c-myc mRNA expression, percentage of control","c-myc mRNA, Kasumi-1; Brusatol (25 ng/ml), 24 h",31 ± 3 %
same,decrease in c-Myc mRNA levels,"c-myc mRNA, K562; 4 h treatment",about 40%
same,"c-myc mRNA expression, percentage of control","c-myc mRNA, K562; Brusatol (25 ng/ml), 4 h",62 ± 4 %
same,"c-myc mRNA expression, percentage of control","c-myc mRNA, K562; Brusatol (25 ng/ml), 24 h",45 ± 6 %
same,"c-myc mRNA expression, percentage of control","c-myc mRNA, RS4;11; RS4,11, Brusatol (25 ng/ml), 24 h",37 ± 2 %
same,"c-myc mRNA expression, percentage of control","c-myc mRNA, RS4;11; RS4;11, Brusatol (25 ng/ml), 4 h",54 ± 5 %
same,"c-myc mRNA expression, percentage of control","c-myc mRNA, U937; Brusatol (25 ng/ml), 4 h",103 ± 1%
same,"c-myc mRNA expression, percentage of control","c-myc mRNA, U937; Brusatol (25 ng/ml), 24 h",19 ± 1 %
same,"c-myc mRNA expression, percentage of control","c-myc mRNA, SUPB13; Brusatol (25 ng/ml), 4 h",27 ± 3 %
same,"c-myc mRNA expression, percentage of control","c-myc mRNA, SUPB13; Brusatol (25 ng/ml), 24 h",24 ± 1 %
same,"c-myc mRNA expression, percentage of control","c-myc mRNA, NB4; Brusatol (25 ng/ml), 4 h",34 ± 4 %
same,"c-myc mRNA expression, percentage of control","c-myc mRNA, NB4; Brusatol (25 ng/ml), 24 h",24 ± 3 %
same,"c-myc mRNA expression, percentage of control","c-myc mRNA, BV173; Brusatol (25 ng/ml), 4 h",78 ± 12 %
same,"c-myc mRNA expression, percentage of control","c-myc mRNA, BV173; Brusatol (25 ng/ml), 24 h",45 ± 0 %
same,"c-myc mRNA expression, percentage of control","c-myc mRNA, Daudi; Brusatol (25 ng/ml), 4 h",100 ± 7%
same,"c-myc mRNA expression, percentage of control","c-myc mRNA, Daudi; Brusatol (25 ng/ml), 24 h",84 ± 1 %
same,"c-myc mRNA expression, percentage of control","c-myc mRNA, Reh; Brusatol (25 ng/ml), 4 h",87 ± 2%
same,"c-myc mRNA expression, percentage of control","c-myc mRNA, Reh; Brusatol (25 ng/ml), 24 h",38 ± 3 %
"COC(=O)[C@@]12OC[C@]34[C@H]([C@@H](O)[C@@H]1O)[C@@]1(C)CC(=O)C(O)=C(C)[C@@H]1C[C@H]3OC(=O)[C@H](OC(=O)/C=C(\C)C(C)C)[C@@H]24 [compound 2, bruceantin]",IC50 at 4 days,[1],40 ± 3 nM
same,"c-myc mRNA expression, percentage of control","c-myc mRNA, Kasumi-1; Bruceantin (10 ng/ml), 4 h",20 ± 2 %
same,"c-myc mRNA expression, percentage of control","c-myc mRNA, Kasumi-1; Bruceantin (10 ng/ml), 24 h",15 ± 2 %
same,"c-myc mRNA expression, percentage of control","c-myc mRNA, K562; Bruceantin (10 ng/ml), 4 h",55 ± 2 %
same,"c-myc mRNA expression, percentage of control","c-myc mRNA, K562; Bruceantin (10 ng/ml), 24 h",33 ± 2 %
same,"c-myc mRNA expression, percentage of control","c-myc mRNA, RS4;11; RS4;11, Bruceantin (10 ng/ml), 4 h",68 ± 3%
same,"c-myc mRNA expression, percentage of control","c-myc mRNA, RS4;11; RS4;11, Bruceantin (10 ng/ml), 24 h",31 ± 8 %
same,"c-myc mRNA expression, percentage of control","c-myc mRNA, U937; Bruceantin (10 ng/ml), 4 h",86 ± 1%
same,"c-myc mRNA expression, percentage of control","c-myc mRNA, U937; Bruceantin (10 ng/ml), 24 h",19 ± 2 %
same,"c-myc mRNA expression, percentage of control","c-myc mRNA, SUPB13; Bruceantin (10 ng/ml), 4 h",38 ± 2 %
same,"c-myc mRNA expression, percentage of control","c-myc mRNA, SUPB13; Bruceantin (10 ng/ml), 24 h",24 ± 2 %
same,"c-myc mRNA expression, percentage of control","c-myc mRNA, NB4; Bruceantin (10 ng/ml), 4 h",27 ± 4 %
same,"c-myc mRNA expression, percentage of control","c-myc mRNA, NB4; Bruceantin (10 ng/ml), 24 h",85 ± 5%
same,"c-myc mRNA expression, percentage of control","c-myc mRNA, BV173; Bruceantin (10 ng/ml), 4 h",125 ± 11 %
same,"c-myc mRNA expression, percentage of control","c-myc mRNA, BV173; Bruceantin (10 ng/ml), 24 h",67 ± 9 %
same,"c-myc mRNA expression, percentage of control","c-myc mRNA, Daudi; Bruceantin (10 ng/ml), 4 h",134 ± 17%
same,"c-myc mRNA expression, percentage of control","c-myc mRNA, Daudi; Bruceantin (10 ng/ml), 24 h",70 ± 5 %
same,"c-myc mRNA expression, percentage of control","c-myc mRNA, Reh; Bruceantin (10 ng/ml), 4 h",68 ± 5 %
same,"c-myc mRNA expression, percentage of control","c-myc mRNA, Reh; Bruceantin (10 ng/ml), 24 h",42 ± 6 %
